Experimental data taken from patent US6492373B2, “6-fluoro-1,4-dihydro-7-[4-(2-hydroxyiminoethyl)-1-piperazinyl]-4-oxoquinoline-3-carboxylic acid derivatives, their preparation and pharmaceutical compositions” (Pharmaceutical Industry Technology and Development Center, priority 2000, dated 2002).
In brackets after ≈: the same amount, converted by molar mass.

How the values were obtained:
Proteus vulgaris = test: In vitro antibacterial activity, MIC by broth dilution; assay type: cell-based; settings: for MIC: Proteus vulgaris, 20-72 hours at 37° C., Mueller-Hinton broth
Escherichia coli = test: In vitro antibacterial activity, MIC by broth dilution; assay type: cell-based; settings: for MIC: Escherichia coli, 20-72 hours at 37° C., Nutrient Broth
Pseudomonas aeruginosa = test: as above; assay type: cell-based; settings: for MIC: Pseudomonas aeruginosa, 20-72 hours at 37° C., Nutrient Broth
Mycobacterium ranae = test: as above; assay type: cell-based; settings: for MIC: Mycobacterium, 20-72 hours at 37° C., Brain Heart Infusion broth
Klebsiella pneumoniae = test: as above; assay type: cell-based
[1] = tested on: Staphylococcus aureus, Methicillin Resistant (MRSA); test: as above; assay type: cell-based; settings: for MIC: Staphylococcus aureus, MRSA, 20-72 hours at 37° C., Mueller-Hinton broth
[2] = tested on: Staphylococcus pneumoniae, Erythromycin and Ampicillin resistant, clinical isolates; test: as above; assay type: cell-based; settings: for MIC: Staphylococcus, 20-72 hours at 37° C., Tryptic Soy Broth with 7% calf serum
[3] = tested on: Enterococcus faecalis, Vancomycin resistant, clinical isolates; test: as above; assay type: cell-based; settings: for MIC: Enterococcus faecalis, 20-72 hours at 37° C., Tryptic Soy Broth with 7% calf serum
HL-60 (TB) (leukemia) = test: NCI in vitro tumor cell growth inhibition (GI50); assay type: cell-based; settings: Homo sapiens
RXF-393 (renal cancer) = test: NCI in vitro tumor cell growth inhibition (GI50); assay type: cell-based; settings: Homo sapiens
CCRF-CEM (leukemia) = test: NCI in vitro tumor cell growth inhibition (GI50); assay type: cell-based; settings: Homo sapiens
[4] = tested on: NCI-H226 (non-small cell lung cancer); test: NCI in vitro tumor cell growth inhibition (GI50); assay type: cell-based; settings: Homo sapiens
[5] = tested on: HOP-62 (non-small cell lung cancer); test: NCI in vitro tumor cell growth inhibition (GI50); assay type: cell-based; settings: Homo sapiens
[6] = tested on: EKVX (non-small cell lung cancer); test: NCI in vitro tumor cell growth inhibition (GI50); assay type: cell-based; settings: Homo sapiens
UO-31 (renal cancer) = test: NCI in vitro tumor cell growth inhibition (GI50); assay type: cell-based; settings: Homo sapiens
SK-OV-4 (ovarian cancer) = test: NCI in vitro tumor cell growth inhibition (GI50); assay type: cell-based; settings: Homo sapiens
[7] = tested on: 60 human tumor cell lines; test: NCI in vitro tumor cell growth inhibition, whole panel; assay type: cell-based; settings: for GI50: Homo sapiens, Mean values over 60 cell lines tested; for Range: Ratio of GI50 value for the least sensitive cell to the most sensitive cell
RPMI-8226 (leukemia) = test: NCI in vitro tumor cell growth inhibition (GI50); assay type: cell-based; settings: Homo sapiens
SK-OV-3 (ovarian cancer) = test: NCI in vitro tumor cell growth inhibition (GI50); assay type: cell-based; settings: Homo sapiens
SK-OV-5 (ovarian cancer) = test: NCI in vitro tumor cell growth inhibition (GI50); assay type: cell-based; settings: Homo sapiens
CAKI-1 (renal cancer) = test: NCI in vitro tumor cell growth inhibition (GI50); assay type: cell-based; settings: Homo sapiens
[8] = 20-72 hours at 37° C., Nutrient Broth
[9] = Gentamicin, footnote b: MIC in μg/ml

| Compound | MIC (Proteus vulgaris) [µM] | melting point | MIC (Escherichia coli) [µM] | MIC (Pseudomonas aeruginosa) [µM] | MIC (Mycobacterium ranae) [µM] | MIC, Kp (Klebsiella pneumoniae; [8]) [µM] | MIC [1] [µM] | MIC [2] [µM] | MIC [3] [µM] | further results |
| --- | --- | --- | --- | --- | --- | --- | --- | --- | --- | --- |
| CCn1cc(C(=O)O)c(=O)c2cc(F)c(N3CCN(CC(=NO)c4ccccc4)CC3)cc21 [Exp. 3, 1-Ethyl-6-fluoro-4-oxo-7-[4-(2-hydroxyimino-2-phenylethyl)-1-piperazinyl]-1,4-dihydroquinoline-3-carboxylic acid] | 3.45 (≈ 1.56 µg/mL) | 203 °C (dec.) | 0.86 (≈ 0.389 µg/mL) | 13.8 (≈ 6.24 µg/mL) | 55.3 (≈ 25 µg/mL) | 0.22 | 0.44 (≈ 0.199 µg/mL) | – | – | – |
| CCn1cc(C(=O)O)c(=O)c2cc(F)c(N3CCN(CC(C)=NO)CC3)cc21 [Exp. 2, 1-Ethyl-6-fluoro-7-[4-(2-hydroxyiminopropyl)-1-piperazinyl]-4-oxo-1,4-dihydroquinoline-3-carboxylic acid] | 2 (≈ 0.781 µg/mL) | 218 °C (dec.) | 0.51 (≈ 0.199 µg/mL) | 16 (≈ 6.25 µg/mL) | 32.1 (≈ 12.5 µg/mL) | 0.13 | 0.51 (≈ 0.199 µg/mL) | – | – | – |
| CCn1cc(C(=O)O)c(=O)c2cc(F)c(N3CCN(CC(=O)c4ccccc4)CC3)c(F)c21 [Exp. 4, 1-Ethyl-6,8-difluoro-1,4-dihydro-4-oxo-7-(4-phenacyl-1-piperazinyl)-quinoline-3-carboxylic acid] | 0.22 (≈ 0.1 µg/mL) | 167 °C (dec.) | 0.22 (≈ 0.1 µg/mL) | 0.86 (≈ 0.392 µg/mL) | 3.43 (≈ 1.56 µg/mL) | 0.055 | 1.71 (≈ 0.779 µg/mL) | 13.7 (≈ 6.24 µg/mL) | 13.7 (≈ 6.24 µg/mL) | – |
| CC1COc2c(N3CCN(C)CC3)c(F)cc3c(=O)c(C(=O)O)cn1c23 (stereo not shown) [Ofloxacin, reference compound] | 0.069 (≈ 0.0249 µg/mL) | – | 0.28 (≈ 0.101 µg/mL) | 2.16 (≈ 0.781 µg/mL) | 1.08 (≈ 0.39 µg/mL) | 0.036 | 1.08 (≈ 0.39 µg/mL) | 4.32 (≈ 1.56 µg/mL) | 4.32 (≈ 1.56 µg/mL) | – |
| COc1ccc(C(CN2CCN(c3cc4c(cc3F)c(=O)c(C(=O)O)cn4-c3ccc([N+](=O)[O-])cc3F)CC2)=NO)cc1 [Exp. 8, 1-(4-Nitro-2-fluorophenyl)-6-fluoro-7-{4-[2-hydroxyimino-2-(4-methoxyphenyl)ethyl]-1-piperazinyl}-4-oxo-1,4-dihydroquinoline-3-carboxylic acid] | > 169 | – | 1.32 (≈ 0.783 µg/mL) | 42.2 (≈ 25 µg/mL) | 21.1 (≈ 12.5 µg/mL) | 0.08 | 0.34 (≈ 0.202 µg/mL) | 1.32 (≈ 0.783 µg/mL) | 5.28 (≈ 3.13 µg/mL) | – |
| CCn1cc(C(=O)O)c(=O)c2cc(F)c(N3CCN(CC(=NO)c4ccc(F)cc4)CC3)cc21 [Exp. 9, 1-Ethyl-6-fluoro-7-{4-[2-(4-fluorophenyl)-2-hydroxyimino-ethyl]-1-piperazinyl}-4-oxo-1,4-dihydro-3-quinolinecarboxylic acid] | – | – | – | – | – | – | – | – | – | GI50 (HL-60 (TB) (leukemia)): 0.98 µM; GI50 (RXF-393 (renal cancer)): 0.17 µM; GI50 (CCRF-CEM (leukemia)): 10.5 µM; GI50 [4]: 53.5 µM; GI50 [5]: 42.6 µM; GI50 [6]: 42.6 µM; GI50 (UO-31 (renal cancer)): 0.13 µM; GI50 (SK-OV-4 (ovarian cancer)): 39.4 µM; GI50 [7]: 21.5 µM; Range [7]: 758; GI50 (RPMI-8226 (leukemia)): 22.9 µM; GI50 (SK-OV-3 (ovarian cancer)): 32 µM; GI50 (SK-OV-5 (ovarian cancer)): > 100 µM; GI50 (CAKI-1 (renal cancer)): 1.89 µM |
| CCn1cc(C(=O)O)c(=O)c2cc(F)c(N3CCN(CC(=NO)c4ccc(OC)cc4)CC3)c(F)c21 [Exp. 6, 1-Ethyl-6,8-difluoro-7-{4-[2-hydroxyimino-2-(4-methoxy-phenyl)ethyl]-1-piperazinyl}-4-oxo-1,4-dihydroquinoline-3-carboxylic acid] | 0.4 (≈ 0.2 µg/mL) | 176 °C (dec.) | 0.4 (≈ 0.2 µg/mL) | 3.16 (≈ 1.58 µg/mL) | 6.34 (≈ 3.17 µg/mL) | 0.10 | 0.2 (≈ 0.1 µg/mL) | 6.34 (≈ 3.17 µg/mL) | 3.16 (≈ 1.58 µg/mL) | – |
| CCn1cc(C(=O)O)c(=O)c2cc(F)c(N3CCNCC3)cc21 [Norfloxacin, reference compound] | 0.16 (≈ 0.0511 µg/mL) | – | 0.63 (≈ 0.201 µg/mL) | 1.22 (≈ 0.39 µg/mL) | 9.81 (≈ 3.13 µg/mL) | 0.041 | 4.89 (≈ 1.56 µg/mL) | 19.6 (≈ 6.26 µg/mL) | 9.81 (≈ 3.13 µg/mL) | – |
| COc1ccc(C(=O)CN2CCN(c3cc4c(cc3F)c(=O)c(C(=O)O)cn4-c3ccc(N)cc3F)CC2)cc1 [Exp. 12, 1-(4-amino-2-fluorophenyl)-6-fluoro-7-{4-[2-(4-methoxy-phenyl)-2-oxoethyl]-1-piperazinyl}-4-oxo-1,4-dihydroquinoline-3-carboxylic acid] | 18.2 (≈ 9.98 µg/mL) | 143 °C (dec.) | 0.55 (≈ 0.302 µg/mL) | 5.74 (≈ 3.15 µg/mL) | 18.2 (≈ 9.98 µg/mL) | 0.05 | 0.55 (≈ 0.302 µg/mL) | 1.82 (≈ 0.998 µg/mL) | 5.47 (≈ 3 µg/mL) | – |
| CCn1cc(C(=O)O)c(=O)c2cc(F)c(N3CCN(CC(=NOC)c4ccc(OC)cc4)CC3)cc21 [Exp. 7, 1-Ethyl-6-fluoro-7-{4-[2-methoxyimino-2-(4-methoxyphenyl)-ethyl]-1-piperazinyl}-4-oxo-1,4-dihydroquinoline-3-carboxylic acid] | 6.31 (≈ 3.13 µg/mL) | 165 °C (dec.) | 6.31 (≈ 3.13 µg/mL) | 202 (≈ 100 µg/mL) | 202 (≈ 100 µg/mL) | 1.57 | 1.57 (≈ 0.78 µg/mL) | 12.6 (≈ 6.26 µg/mL) | 12.6 (≈ 6.26 µg/mL) | – |
| CCn1cc(C(=O)O)c(=O)c2cc(F)c(N3CCN(CC(=NO)c4ccc(Cl)cc4)CC3)cc21 [Exp. 10, 1-Ethyl-6-fluoro-7-{4-[2-(4-chlorophenyl)-2-hydroxyimino-ethyl]-1-piperazinyl}-4-oxo-1,4-dihydro-3-quinolinecarboxylic acid] | – | – | – | – | – | – | – | – | – | GI50 (HL-60 (TB) (leukemia)): 1.29 µM; GI50 (RXF-393 (renal cancer)): 0.72 µM; GI50 (CCRF-CEM (leukemia)): 67.4 µM; GI50 [4]: 20.3 µM; GI50 [5]: 28.6 µM; GI50 [6]: 19.2 µM; GI50 (UO-31 (renal cancer)): 0.03 µM; GI50 (SK-OV-4 (ovarian cancer)): 32.1 µM; GI50 [7]: 9.31 µM; Range [7]: 2291; GI50 (RPMI-8226 (leukemia)): 3.21 µM; GI50 (SK-OV-3 (ovarian cancer)): 28.7 µM; GI50 (SK-OV-5 (ovarian cancer)): 22.8 µM; GI50 (CAKI-1 (renal cancer)): 0.4 µM |
| Gentamicin [reference compound] | – | – | – | – | – | – | – | – | – | MIC, Pv (Proteus vulgaris; [9]): 0.1 µg/mL; MIC, Ec (Escherichia coli; [9]): 0.20 µg/mL; MIC, Pa (Pseudomonas aeruginosa; [9]): 0.39 µg/mL; MIC, SpEAR [2, 9]: 100 µg/mL; MIC, Mr (Mycobacterium ranae; [9]): 0.20 µg/mL; MIC, EfVRE [3, 9]: 50 µg/mL; MIC, Kp (Klebsiella pneumoniae; [9]): 0.2 µg/mL; MIC, MRSA [1, 9]: 0.78 µg/mL |
| CCn1cc(C(=O)O)c(=O)c2cc(F)c(N3CCN(C(=N)C(O)c4ccc(F)cc4)CC3)c(F)c21 (stereo not shown) [Exp. 11, 1-Ethyl-6,8-difluoro-7-{4-[2-(4-fluorophenyl)-2-hydroxy-iminoethyl]-1-piperazinyl}-4-oxo-1,4-dihydro-3-quinolinecarboxylic acid] | – | 201 °C (dec.) | – | – | – | – | – | – | – | – |
| CCn1cc(C(=O)O)c(=O)c2cc(F)c(N3CCN(CC(C)NN)CC3)cc21 (stereo not shown) [Exp. 1, 1-Ethyl-6-fluoro-7-[4-(2-hydrazinopropyl)-1-piperazinyl]-4-oxo-1,4-dihydroquinoline-3-carboxylic acid] | 2.01 (≈ 0.787 µg/mL) | 208 °C (dec.) | 2.01 (≈ 0.787 µg/mL) | 16.1 (≈ 6.3 µg/mL) | 16.1 (≈ 6.3 µg/mL) | 0.064 | 4.01 (≈ 1.57 µg/mL) | 32.1 (≈ 12.6 µg/mL) | 16.1 (≈ 6.3 µg/mL) | – |
| CCn1cc(C(=O)O)c(=O)c2cc(F)c(N3CCN(CC(=NO)c4ccc(OC)cc4)CC3)cc21 [Exp. 5, 1-Ethyl-6-fluoro-7-{4-[2-hydroxyimino-2-(4-methoxyphenyl)-ethyl]-1-piperazinyl}-4-oxo-1,4-dihydroquinoline-3-carboxylic acid] | 3.24 (≈ 1.56 µg/mL) | 221 °C (dec.) | 1.62 (≈ 0.782 µg/mL) | 25.9 (≈ 12.5 µg/mL) | 104 (≈ 50.2 µg/mL) | 0.027 | 0.41 (≈ 0.198 µg/mL) | 13 (≈ 6.26 µg/mL) | 3.24 (≈ 1.56 µg/mL) | GI50 (HL-60 (TB) (leukemia)): 17.7 µM; GI50 (CCRF-CEM (leukemia)): 24.4 µM; GI50 [4]: 93.3 µM; GI50 [5]: 52.3 µM; GI50 [6]: 46.8 µM; GI50 (UO-31 (renal cancer)): 0.55 µM; GI50 (SK-OV-4 (ovarian cancer)): 55.1 µM; GI50 [7]: 31.8 µM; Range [7]: 182; GI50 (RPMI-8226 (leukemia)): 38.4 µM; GI50 (SK-OV-3 (ovarian cancer)): 37.2 µM; GI50 (SK-OV-5 (ovarian cancer)): > 100 µM; GI50 (CAKI-1 (renal cancer)): 6.91 µM |
